Data reported in ChEMBL document CHEMBL4507291 (2021).

Legend:
[1] = biological target: T1, Ephrin type-B receptor 4 (Homo sapiens) (UniProt P54760); experiment: EPHB4 Kinase screen; conditions: Compound concentration 1.0 uM
T1 sequence (whole entry): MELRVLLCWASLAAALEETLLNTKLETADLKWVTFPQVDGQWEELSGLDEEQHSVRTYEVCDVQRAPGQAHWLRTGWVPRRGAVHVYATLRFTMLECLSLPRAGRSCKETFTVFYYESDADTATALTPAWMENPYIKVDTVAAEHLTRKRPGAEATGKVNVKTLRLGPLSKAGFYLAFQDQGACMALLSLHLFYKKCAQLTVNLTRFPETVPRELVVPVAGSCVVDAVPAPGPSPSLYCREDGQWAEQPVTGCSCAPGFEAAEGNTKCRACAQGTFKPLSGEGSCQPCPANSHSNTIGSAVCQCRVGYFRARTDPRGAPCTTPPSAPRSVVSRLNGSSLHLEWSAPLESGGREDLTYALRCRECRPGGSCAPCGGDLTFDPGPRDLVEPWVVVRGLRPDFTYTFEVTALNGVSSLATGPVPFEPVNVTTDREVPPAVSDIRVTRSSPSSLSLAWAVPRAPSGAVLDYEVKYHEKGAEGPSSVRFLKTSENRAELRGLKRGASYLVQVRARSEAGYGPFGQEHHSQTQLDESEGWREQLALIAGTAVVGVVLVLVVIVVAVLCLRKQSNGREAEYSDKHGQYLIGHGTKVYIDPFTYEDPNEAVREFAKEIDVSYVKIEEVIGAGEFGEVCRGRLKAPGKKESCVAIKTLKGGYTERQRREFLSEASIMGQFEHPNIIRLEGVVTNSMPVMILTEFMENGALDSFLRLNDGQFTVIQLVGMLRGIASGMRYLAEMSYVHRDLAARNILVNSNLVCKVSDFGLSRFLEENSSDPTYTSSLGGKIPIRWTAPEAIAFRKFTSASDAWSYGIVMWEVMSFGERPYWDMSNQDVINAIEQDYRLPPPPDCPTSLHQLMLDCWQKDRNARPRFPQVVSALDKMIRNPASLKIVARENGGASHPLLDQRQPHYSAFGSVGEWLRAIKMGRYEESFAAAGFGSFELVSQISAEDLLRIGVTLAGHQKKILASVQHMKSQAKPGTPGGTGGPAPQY

[2] = biological target: Progesterone receptor (Homo sapiens) (UniProt P06401); experiment: Inhibition of Progesterone PR-B at 10 µM in the Eurofins-Panlabs radioligand binding assay (Eurofins_assay_268020); design: ligand concentration 1.4 nM; conditions: Compound concentration 10.0 uM
Chain of Progesterone receptor (Homo sapiens) (P06401 whole entry): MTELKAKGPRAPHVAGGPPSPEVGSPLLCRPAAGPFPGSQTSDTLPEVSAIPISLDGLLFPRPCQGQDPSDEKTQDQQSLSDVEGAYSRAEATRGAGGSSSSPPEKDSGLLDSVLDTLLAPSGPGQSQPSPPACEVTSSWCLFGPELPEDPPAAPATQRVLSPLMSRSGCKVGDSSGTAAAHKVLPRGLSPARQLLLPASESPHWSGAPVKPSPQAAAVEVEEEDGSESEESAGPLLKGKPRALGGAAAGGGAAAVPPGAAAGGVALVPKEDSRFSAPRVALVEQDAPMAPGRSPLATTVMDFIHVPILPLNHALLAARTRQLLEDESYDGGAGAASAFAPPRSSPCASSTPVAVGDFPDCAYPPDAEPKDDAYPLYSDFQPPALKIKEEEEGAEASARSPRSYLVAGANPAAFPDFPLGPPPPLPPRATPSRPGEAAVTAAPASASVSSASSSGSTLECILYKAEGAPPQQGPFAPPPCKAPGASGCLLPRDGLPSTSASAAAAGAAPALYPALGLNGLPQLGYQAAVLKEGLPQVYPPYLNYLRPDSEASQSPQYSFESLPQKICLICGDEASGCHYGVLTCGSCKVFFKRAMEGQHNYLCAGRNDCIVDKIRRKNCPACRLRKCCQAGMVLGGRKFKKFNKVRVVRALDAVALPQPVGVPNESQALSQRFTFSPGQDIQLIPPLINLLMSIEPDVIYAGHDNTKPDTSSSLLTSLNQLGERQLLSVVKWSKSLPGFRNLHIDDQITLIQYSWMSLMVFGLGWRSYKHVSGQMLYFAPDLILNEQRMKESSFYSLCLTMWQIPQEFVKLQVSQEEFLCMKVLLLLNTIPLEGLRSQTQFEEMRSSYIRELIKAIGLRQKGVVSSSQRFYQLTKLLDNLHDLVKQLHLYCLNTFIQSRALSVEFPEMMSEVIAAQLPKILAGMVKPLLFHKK

[3] = biological target: Serine/threonine-protein kinase 24 (Homo sapiens) (UniProt Q9Y6E0); experiment: STK24 (MST3) Kinase screen; conditions: Compound concentration 1.0 uM
Chain of Serine/threonine-protein kinase 24 (Homo sapiens) (Q9Y6E0 whole entry, looked up, canonical isoform): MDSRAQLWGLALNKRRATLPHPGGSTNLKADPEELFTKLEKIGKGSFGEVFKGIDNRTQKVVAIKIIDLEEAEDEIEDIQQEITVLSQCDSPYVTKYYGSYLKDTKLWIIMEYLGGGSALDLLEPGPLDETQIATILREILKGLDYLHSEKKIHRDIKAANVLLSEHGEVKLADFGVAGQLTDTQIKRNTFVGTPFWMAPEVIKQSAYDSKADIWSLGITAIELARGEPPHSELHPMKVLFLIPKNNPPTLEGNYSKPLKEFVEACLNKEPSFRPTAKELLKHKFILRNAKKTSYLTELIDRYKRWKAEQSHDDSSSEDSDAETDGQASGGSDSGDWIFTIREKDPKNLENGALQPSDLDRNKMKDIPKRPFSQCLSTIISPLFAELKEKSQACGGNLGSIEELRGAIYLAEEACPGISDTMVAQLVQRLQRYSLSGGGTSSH

[4] = biological target: Casein kinase I isoform alpha (Homo sapiens) (UniProt P48729); experiment: CSNK1A1 (CK1 alpha 1) Kinase screen; conditions: Compound concentration 1.0 uM
Chain of Casein kinase I isoform alpha (Homo sapiens) (P48729 2-337 limits assumed): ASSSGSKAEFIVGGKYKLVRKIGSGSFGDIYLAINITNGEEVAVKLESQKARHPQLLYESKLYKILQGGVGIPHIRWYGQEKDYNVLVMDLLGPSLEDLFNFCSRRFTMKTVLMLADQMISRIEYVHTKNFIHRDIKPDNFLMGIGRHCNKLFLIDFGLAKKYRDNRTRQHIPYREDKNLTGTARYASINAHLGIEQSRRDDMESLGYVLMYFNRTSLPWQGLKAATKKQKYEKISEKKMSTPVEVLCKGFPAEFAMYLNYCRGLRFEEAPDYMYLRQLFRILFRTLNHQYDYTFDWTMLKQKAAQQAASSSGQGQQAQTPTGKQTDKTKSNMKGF

[5] = biological target: Maternal embryonic leucine zipper kinase (Homo sapiens) (UniProt Q14680); experiment: MELK Kinase screen; conditions: Compound concentration 1.0 uM
Chain of Maternal embryonic leucine zipper kinase (Homo sapiens) (Q14680 whole entry, looked up): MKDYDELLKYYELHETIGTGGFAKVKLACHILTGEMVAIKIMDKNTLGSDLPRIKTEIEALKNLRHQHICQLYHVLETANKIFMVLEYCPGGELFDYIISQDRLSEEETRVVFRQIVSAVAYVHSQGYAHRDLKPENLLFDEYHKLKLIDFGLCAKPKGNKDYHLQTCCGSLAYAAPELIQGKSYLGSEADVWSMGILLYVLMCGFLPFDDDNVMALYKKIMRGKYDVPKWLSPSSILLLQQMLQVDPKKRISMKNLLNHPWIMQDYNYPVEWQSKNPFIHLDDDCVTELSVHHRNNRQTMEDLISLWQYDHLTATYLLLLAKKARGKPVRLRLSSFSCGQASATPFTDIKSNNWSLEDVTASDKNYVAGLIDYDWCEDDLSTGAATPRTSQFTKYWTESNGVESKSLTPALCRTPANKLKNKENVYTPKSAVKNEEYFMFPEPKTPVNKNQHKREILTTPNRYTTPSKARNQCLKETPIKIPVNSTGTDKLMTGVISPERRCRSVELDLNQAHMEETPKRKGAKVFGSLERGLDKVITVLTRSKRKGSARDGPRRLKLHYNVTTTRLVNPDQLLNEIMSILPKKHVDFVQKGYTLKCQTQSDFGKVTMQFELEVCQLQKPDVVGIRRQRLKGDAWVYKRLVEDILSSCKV

[6] = biological target: T2, Protein kinase C epsilon type (Homo sapiens) (UniProt Q02156); experiment: PRKCE (PKC epsilon) Kinase screen; conditions: Compound concentration 1.0 uM
T2 sequence (whole entry): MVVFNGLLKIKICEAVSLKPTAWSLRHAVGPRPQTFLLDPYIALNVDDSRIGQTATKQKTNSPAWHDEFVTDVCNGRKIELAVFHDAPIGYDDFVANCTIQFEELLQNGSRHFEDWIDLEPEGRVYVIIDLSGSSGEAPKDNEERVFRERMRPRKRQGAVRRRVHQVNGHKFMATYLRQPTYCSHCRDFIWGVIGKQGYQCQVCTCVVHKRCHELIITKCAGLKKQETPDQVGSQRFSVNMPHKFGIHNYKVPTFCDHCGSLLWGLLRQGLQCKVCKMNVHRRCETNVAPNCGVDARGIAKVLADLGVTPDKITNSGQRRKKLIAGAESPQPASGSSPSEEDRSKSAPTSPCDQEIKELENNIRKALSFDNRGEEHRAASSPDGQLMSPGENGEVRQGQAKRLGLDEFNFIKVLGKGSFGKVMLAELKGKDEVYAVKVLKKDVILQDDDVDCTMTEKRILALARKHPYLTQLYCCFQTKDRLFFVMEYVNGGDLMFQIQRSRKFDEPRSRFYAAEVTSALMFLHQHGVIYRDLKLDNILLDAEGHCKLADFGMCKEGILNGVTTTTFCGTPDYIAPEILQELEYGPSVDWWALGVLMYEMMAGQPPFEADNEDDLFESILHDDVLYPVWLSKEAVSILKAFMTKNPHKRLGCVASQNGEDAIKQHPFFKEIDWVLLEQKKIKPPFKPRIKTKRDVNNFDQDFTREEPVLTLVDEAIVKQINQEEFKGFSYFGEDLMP

[7] = biological target: Mitogen-activated protein kinase 3 (Homo sapiens) (UniProt P27361); experiment: MAPK3 (ERK1) Kinase screen; conditions: Compound concentration 1.0 uM
Chain of Mitogen-activated protein kinase 3 (Homo sapiens) (P27361 whole entry): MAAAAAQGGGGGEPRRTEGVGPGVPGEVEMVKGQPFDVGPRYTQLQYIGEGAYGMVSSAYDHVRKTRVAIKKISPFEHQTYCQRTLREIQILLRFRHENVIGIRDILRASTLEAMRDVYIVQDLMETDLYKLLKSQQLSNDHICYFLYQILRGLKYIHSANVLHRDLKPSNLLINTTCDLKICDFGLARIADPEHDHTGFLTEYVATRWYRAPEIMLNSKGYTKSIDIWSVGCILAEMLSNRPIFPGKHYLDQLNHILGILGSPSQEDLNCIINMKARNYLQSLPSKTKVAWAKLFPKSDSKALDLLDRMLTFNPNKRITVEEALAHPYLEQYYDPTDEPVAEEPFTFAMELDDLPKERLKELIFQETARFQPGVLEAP

[8] = test system: T3, Receptor-type tyrosine-protein kinase FLT3 (Homo sapiens), P36888 [D835Y]; experiment: FLT3 D835Y Kinase screen; conditions: Compound concentration 1.0 uM
T3 sequence (whole entry): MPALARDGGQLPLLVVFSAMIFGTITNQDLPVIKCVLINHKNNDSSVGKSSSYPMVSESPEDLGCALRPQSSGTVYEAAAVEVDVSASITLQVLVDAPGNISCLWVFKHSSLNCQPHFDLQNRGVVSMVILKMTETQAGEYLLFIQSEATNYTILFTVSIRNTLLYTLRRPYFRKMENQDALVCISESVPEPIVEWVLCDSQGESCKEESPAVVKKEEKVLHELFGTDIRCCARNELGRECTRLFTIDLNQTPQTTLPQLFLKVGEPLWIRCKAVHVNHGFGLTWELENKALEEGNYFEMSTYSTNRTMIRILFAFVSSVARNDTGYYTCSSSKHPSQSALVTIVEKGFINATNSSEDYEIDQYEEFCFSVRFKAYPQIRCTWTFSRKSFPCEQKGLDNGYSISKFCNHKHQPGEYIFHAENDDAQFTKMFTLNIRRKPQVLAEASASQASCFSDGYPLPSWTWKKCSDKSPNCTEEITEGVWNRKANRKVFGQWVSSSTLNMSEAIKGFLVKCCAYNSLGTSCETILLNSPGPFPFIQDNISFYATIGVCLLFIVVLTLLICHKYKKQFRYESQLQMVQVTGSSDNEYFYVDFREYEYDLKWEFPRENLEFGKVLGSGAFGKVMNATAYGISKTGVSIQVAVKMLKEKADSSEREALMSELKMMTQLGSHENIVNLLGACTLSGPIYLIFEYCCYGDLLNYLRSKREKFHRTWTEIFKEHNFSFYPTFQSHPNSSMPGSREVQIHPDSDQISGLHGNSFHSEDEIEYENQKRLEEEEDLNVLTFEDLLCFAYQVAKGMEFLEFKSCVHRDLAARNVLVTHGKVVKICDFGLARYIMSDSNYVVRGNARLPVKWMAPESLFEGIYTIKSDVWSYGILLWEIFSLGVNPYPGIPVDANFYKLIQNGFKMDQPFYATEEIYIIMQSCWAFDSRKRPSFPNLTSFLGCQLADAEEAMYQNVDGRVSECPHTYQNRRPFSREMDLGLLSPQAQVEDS

Measured: inhibition

C[C@@H]1CN(c2cc(-c3n[nH]c4ccc(OC5(C)CC5)cc34)ncn2)C[C@H](C)O1 [MLi-2]
inactive: [1] 2.23% | [2] 30% | [3] 7.34% | [4] 1.89% | [5] 5.44% | [6] 4.4% | [7] 18.7% | [8] 9.6%
